The target in the assay is GCN2 kinase (Homo sapiens, UniProt Q9P2K8). The assay can be described thus: GCN2 enzyme inhibition assay (Transcreener ADP2 fluorescence polarization). As to conditions: Enzyme activity for compounds of Formula IV; Ki(app), 280 μM ATP, 25° C. Format: biochemical. The procedure, abridged: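 Inhibition of 4 nM GCN2 was measured with compound up to 8 μM final, ATP 280 μM and (RS)7 peptide 200 μM over a 1 h, 25 °C reaction. ADP FP readout; IC50 and Ki(app) calculated from percent inhibition.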
Sequence of GCN2 kinase (Q9P2K8 whole entry): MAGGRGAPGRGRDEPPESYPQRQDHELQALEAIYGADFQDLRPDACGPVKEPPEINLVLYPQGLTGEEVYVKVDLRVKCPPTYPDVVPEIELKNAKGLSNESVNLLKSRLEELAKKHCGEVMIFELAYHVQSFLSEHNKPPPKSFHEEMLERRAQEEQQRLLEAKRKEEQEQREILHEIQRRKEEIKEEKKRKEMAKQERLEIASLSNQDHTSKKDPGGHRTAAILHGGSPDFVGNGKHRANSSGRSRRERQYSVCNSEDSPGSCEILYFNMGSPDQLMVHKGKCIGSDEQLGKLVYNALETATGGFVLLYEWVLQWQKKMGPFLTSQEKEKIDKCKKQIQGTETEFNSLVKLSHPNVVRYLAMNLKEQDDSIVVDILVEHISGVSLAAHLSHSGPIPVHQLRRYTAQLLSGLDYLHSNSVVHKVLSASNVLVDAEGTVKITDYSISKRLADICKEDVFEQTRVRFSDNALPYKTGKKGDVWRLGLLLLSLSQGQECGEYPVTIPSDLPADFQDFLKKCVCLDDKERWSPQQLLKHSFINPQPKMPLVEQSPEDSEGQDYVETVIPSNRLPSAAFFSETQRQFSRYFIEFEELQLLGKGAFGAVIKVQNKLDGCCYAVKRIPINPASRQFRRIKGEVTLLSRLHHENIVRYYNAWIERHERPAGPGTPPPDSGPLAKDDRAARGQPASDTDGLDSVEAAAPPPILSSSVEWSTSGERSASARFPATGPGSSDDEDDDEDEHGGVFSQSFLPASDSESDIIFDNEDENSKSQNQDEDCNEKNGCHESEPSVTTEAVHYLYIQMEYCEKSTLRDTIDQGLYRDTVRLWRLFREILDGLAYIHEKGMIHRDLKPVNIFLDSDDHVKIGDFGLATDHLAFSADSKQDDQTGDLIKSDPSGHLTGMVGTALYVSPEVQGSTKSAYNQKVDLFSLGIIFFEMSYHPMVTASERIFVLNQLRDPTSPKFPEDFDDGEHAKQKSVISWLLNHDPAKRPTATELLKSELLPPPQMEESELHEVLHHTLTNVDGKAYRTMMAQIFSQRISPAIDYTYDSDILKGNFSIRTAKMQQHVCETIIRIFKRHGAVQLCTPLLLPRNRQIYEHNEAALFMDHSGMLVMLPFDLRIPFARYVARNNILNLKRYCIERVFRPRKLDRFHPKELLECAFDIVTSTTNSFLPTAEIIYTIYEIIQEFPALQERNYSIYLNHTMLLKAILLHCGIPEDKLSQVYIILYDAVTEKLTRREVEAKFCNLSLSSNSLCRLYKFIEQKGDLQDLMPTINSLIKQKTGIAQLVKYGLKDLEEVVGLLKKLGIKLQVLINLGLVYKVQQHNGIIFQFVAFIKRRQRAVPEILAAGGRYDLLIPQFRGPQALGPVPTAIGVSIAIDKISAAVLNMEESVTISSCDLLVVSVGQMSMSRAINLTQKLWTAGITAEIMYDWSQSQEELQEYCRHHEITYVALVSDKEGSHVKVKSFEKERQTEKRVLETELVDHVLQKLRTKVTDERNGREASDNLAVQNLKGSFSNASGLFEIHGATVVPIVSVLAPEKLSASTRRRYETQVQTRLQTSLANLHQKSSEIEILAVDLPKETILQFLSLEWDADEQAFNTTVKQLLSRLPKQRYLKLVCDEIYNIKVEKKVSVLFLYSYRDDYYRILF
Consider `NC(=O)c1cn2c(-c3nccc(N4CC(=O)N5CCCC5C4)n3)cnc2cn1` (stereo not drawn) [IV-268, 3-(4-(4-Oxohexahydropyrrolo[1,2-a]pyrazin-2(1H)-yl)pyrimidin-2-yl)imidazo[1,2-a]pyrazine-6-carboxamide], for which the Ki is 100 to 1000 nM.
For `NC(=O)c1cn2c(-c3nccc(N4CCC5(CCCO5)CC4)n3)cnc2cn1` [IV-269, 3-(4-(1-Oxa-8-azaspiro[4.5]decan-8-yl)pyrimidin-2-yl)imidazo[1,2-a]pyrazine-6-carboxamide] the value was 10 to 100 nM; for `NC(=O)c1cn2c(-c3nccc(N4CC5(CCOC5)C4)n3)cnc2cn1` [IV-270, 3-(4-(6-Oxa-2-azaspiro[3.4]octan-2-yl)pyrimidin-2-yl)imidazo[1,2-a]pyrazine-6-carboxamide], 100 to 1000 nM.
`CC1CCC(C)N(c2ccnc(-c3cnc4cnc(C(N)=O)cn34)n2)C1` (stereo not drawn) [IV-271, 3-(4-(2,5-Dimethylpiperidin-1-yl)pyrimidin-2-yl)imidazo[1,2-a]pyrazine-6-carboxamide] returned a Ki of 100 to 1000 nM.
The value for `CC(=O)N1CCN(c2ccnc(-c3cnc4cnc(C(N)=O)cn34)n2)C(C)C1` (stereo not drawn) [IV-272, 3-(4-(4-Acetyl-2-methylpiperazin-1-yl)pyrimidin-2-yl)imidazo[1,2-a]pyrazine-6-carboxamide] was 100 to 1000 nM; that for `CC(=O)N1CCN(c2cccc(-c3cnc4cnc(C(=O)N(C)C)cn34)n2)CC1` [IV-276, 3-(6-(4-Acetylpiperazin-1-yl)pyridin-2-yl)-N,N-dimethylimidazo[1,2-a]pyrazine-6-carboxamide] was 100 to 1000 nM; that for `NC(=O)c1cn2c(-c3nccc(N4CCN(C(=O)C5CC5)CC4)n3)cnc2cn1` [IV-277, 3-(4-(4-(Cyclopropanecarbonyl)piperazin-1-yl)pyrimidin-2-yl)imidazo[1,2-a]pyrazine-6-carboxamide] was 10 to 100 nM.
Take `Cc1[nH]ncc1C1NC(C)CN(c2ccnc(-c3cnc4cnc(Cl)cn34)n2)C1C` (stereo not drawn) [IV-278, 6-Chloro-3-(4-(2,5-dimethyl-3-(5-methyl-1H-pyrazol-4-yl)piperazin-1-yl)pyrimidin-2-yl)imidazo[1,2-a]pyrazine]: the Ki is under 10 nM.
Take `NC(=O)c1cn2c(-c3cccc(N4CCN(C(=O)C5CC5)CC4)n3)cnc2cn1` [IV-284, 3-(6-(4-(Cyclopropanecarbonyl)piperazin-1-yl)pyridin-2-yl)imidazo[1,2-a]pyrazine-6-carboxamide]: the Ki was in the range of 100 to 1000 nM.
`CC(=O)N1CCN(c2ccnc(-c3cnc4cnc(-c5ccncc5)cn34)n2)CC1` [IV-285, 1-(4-(2-(6-(Pyridin-4-yl)imidazo[1,2-a]pyrazin-3-yl)pyrimidin-4-yl)piperazin-1-yl)ethan-1-one] displayed a Ki of 10 to 100 nM.
Turning to `O=C1CCCC2CN(c3ccnc(-c4cnc5cnc(Cl)cn45)n3)CCN12` (stereo not drawn) [IV-286, 2-(2-(6-Chloroimidazo[1,2-a]pyrazin-3-yl)pyrimidin-4-yl)octahydro-6H-pyrido[1,2-c]pyrazin-6-one], the Ki lay in the range of 10 to 100 nM.
For `CC(=O)N1CCN(c2ccnc(-c3cnc4cnc(-c5cccnc5)cn34)n2)CC1` [IV-289, 1-(4-(2-(6-(Pyridin-3-yl)imidazo[1,2-a]pyrazin-3-yl)pyrimidin-4-yl)piperazin-1-yl)ethan-1-one] the value was 100 to 1000 nM; for `CCN1C(C)CN(c2ccnc(-c3cnc4cnc(C(F)(F)F)cn34)n2)C(C)C1c1cn[nH]c1` (stereo not drawn) [IV-292, 3-(4-(4-Ethyl-2,5-dimethyl-3-(1H-pyrazol-4-yl)piperazin-1-yl)pyrimidin-2-yl)-6-(trifluoromethyl)imidazo[1,2-a]pyrazine], under 10 nM.
The value for `CC(=O)N1CCN(c2ccnc(-c3cnc4cnc(-c5ccccc5)cn34)n2)CC1` [IV-297, 1-(4-(2-(6-Phenylimidazo[1,2-a]pyrazin-3-yl)pyrimidin-4-yl)piperazin-1-yl)ethan-1-one] was 100 to 1000 nM.
With `CC(=O)Nc1ccc(-c2cn3c(-c4nccc(N5CCN(C(C)=O)CC5)n4)cnc3cn2)cc1` [IV-298, N-(4-(3-(4-(4-Acetylpiperazin-1-yl)pyrimidin-2-yl)imidazo[1,2-a]pyrazin-6-yl)phenyl)acetamide], the Ki was in the range of 100 to 1000 nM.
